Experimental data taken from ChEMBL document CHEMBL2375252, “Novel indoline-2,3-dione derivatives as inhibitors of aminopeptidase N (APN)” (Bioorg Med Chem, 2013).

System: not listed separately
Experiment: Cytotoxicity against human ES2 cells after 48 hrs by MTT assay
Details: ES-2, 48 h

With `O=C(CN1C(=O)C2(OCCCO2)c2cc(Br)ccc21)NO` as the compound, how does the IC50 read?
The IC50 was 137 µM.

With `O=C(CN1C(=O)C2(OCCCCO2)c2cc(Br)ccc21)NO` as the compound, how does the IC50 read?
Its IC50 is 409 µM.

For `O=C(CN1C(=O)C2(OCCCCO2)c2cc(Cl)ccc21)NO`, which IC50 is on record?
Its IC50 is 212 µM.

With `O=C(CN1C(=O)C2(OCCO2)c2cc(Cl)ccc21)NO` as the compound, how does the IC50 read?
Its IC50 is 167 µM.

For `O=C(CN1C(=O)C2(OCCCO2)c2cc(F)ccc21)NO`, which IC50 is on record?
Its IC50 is 457 µM.

For `CC(C)C[C@H](NC(=O)[C@@H](O)[C@H](N)Cc1ccccc1)C(=O)O` [UBENIMEX], which IC50 is on record?
The IC50 was 632 µM.

With `O=C(CN1C(=O)C2(OCCCCO2)c2cc(F)ccc21)NO` as the compound, how does the IC50 read?
The IC50 was 553 µM.

Which IC50 does the source give for `O=C(CN1C(=O)C2(OCCO2)c2cc(F)ccc21)NO` here?
Its IC50 is 142 µM.

Which IC50 does the source give for `O=C(CN1C(=O)C2(OCCCO2)c2cc(Cl)ccc21)NO` here?
Its IC50 is 233 µM.

Molecular target: Histone deacetylase 1/3/5/8 (Homo sapiens, UniProt Q13547+O15379+Q9UQL6+Q9BY41)
Experiment: Inhibition of HDAC1/3/5/8 in human HeLa cell extract using Boc-Lys-(acetyl)-AMC as substrate incubated for 5 mins prior to substrate addition measured after 30 mins by fluorometric analysis
Format: protein assay
Details: not given

With `O=C(CN1C(=O)C2(OCCO2)c2cc(Br)ccc21)NO` as the compound, how does the IC50 read?
The IC50 was > 100 µM.

For `O=C(CN1C(=O)C2(OCCCO2)c2cc(Br)ccc21)NO`, which IC50 is on record?
Its IC50 is > 100 µM.

With `O=C(CNC(=O)CN1C(=O)C2(OCCO2)c2cc(Br)ccc21)NO` as the compound, how does the IC50 read?
Its IC50 is 0.33 µM.

With `O=C(CN1C(=O)C2(OCCCCO2)c2cc(Br)ccc21)NO` as the compound, how does the IC50 read?
Its IC50 is > 100 µM.

For `O=C(CN1C(=O)C2(OCCCCO2)c2cc(Cl)ccc21)NO`, which IC50 is on record?
Its IC50 is > 100 µM.

With `O=C(CN1C(=O)C2(OCCO2)c2cc(Cl)ccc21)NO` as the compound, how does the IC50 read?
The IC50 was > 100 µM.

Which IC50 does the source give for `O=C(CN1C(=O)C2(OCCCO2)c2cc(F)ccc21)NO` here?
The IC50 was > 100 µM.

Which IC50 does the source give for `O=C(CN1C(=O)C2(OCCCCO2)c2cc(F)ccc21)NO` here?
Its IC50 is > 100 µM.

With `O=C(CN1C(=O)C2(OCCO2)c2cc(F)ccc21)NO` as the compound, how does the IC50 read?
The IC50 was > 100 µM.

Which IC50 does the source give for `O=C(CN1C(=O)C2(OCCCO2)c2cc(Cl)ccc21)NO` here?
Its IC50 is > 100 µM.

Molecular target: Aminopeptidase N (Homo sapiens, UniProt P15144)
Experiment: Inhibition of aminopeptidase-N in human ES2 cells using L-leu-p-nitroanilide as substrate incubated for 5 mins prior to substrate addition measured after 30 mins by spectrophotometric analysis
Format: cell-based
Details: not given

Sequence of Aminopeptidase N (Homo sapiens, UniProt P15144) (P15144 whole entry): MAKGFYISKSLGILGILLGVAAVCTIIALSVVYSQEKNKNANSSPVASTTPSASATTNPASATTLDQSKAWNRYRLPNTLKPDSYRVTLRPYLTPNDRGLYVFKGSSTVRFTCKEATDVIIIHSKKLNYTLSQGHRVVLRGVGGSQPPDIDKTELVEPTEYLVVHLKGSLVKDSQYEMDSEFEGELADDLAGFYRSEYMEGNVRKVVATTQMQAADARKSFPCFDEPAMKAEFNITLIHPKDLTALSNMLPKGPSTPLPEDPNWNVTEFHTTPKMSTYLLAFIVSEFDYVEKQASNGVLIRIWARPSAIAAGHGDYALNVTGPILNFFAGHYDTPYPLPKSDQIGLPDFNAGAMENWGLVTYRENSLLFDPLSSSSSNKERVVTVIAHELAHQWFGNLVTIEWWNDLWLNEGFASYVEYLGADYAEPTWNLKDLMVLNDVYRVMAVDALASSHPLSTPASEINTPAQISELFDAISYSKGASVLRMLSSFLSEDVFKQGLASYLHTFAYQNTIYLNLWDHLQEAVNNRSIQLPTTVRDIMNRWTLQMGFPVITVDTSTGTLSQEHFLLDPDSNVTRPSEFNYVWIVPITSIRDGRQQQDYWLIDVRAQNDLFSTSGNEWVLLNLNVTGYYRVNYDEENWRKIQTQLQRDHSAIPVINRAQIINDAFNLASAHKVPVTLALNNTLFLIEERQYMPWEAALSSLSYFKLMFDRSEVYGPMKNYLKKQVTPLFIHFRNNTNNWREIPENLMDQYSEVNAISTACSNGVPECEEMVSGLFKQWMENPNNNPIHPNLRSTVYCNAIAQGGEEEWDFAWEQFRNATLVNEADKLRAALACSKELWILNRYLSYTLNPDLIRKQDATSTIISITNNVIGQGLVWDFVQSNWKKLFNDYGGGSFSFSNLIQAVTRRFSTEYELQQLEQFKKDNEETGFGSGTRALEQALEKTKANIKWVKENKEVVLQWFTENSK

For `O=C(CN1C(=O)C2(OCCCO2)c2cc(Br)ccc21)NO`, which IC50 is on record?
The IC50 was 19.7 µM.

For `O=C(CN1C(=O)C2(OCCCCO2)c2cc(Br)ccc21)NO`, which IC50 is on record?
Its IC50 is 12.1 µM.

Which IC50 does the source give for `O=C(CN1C(=O)C2(OCCCCO2)c2cc(Cl)ccc21)NO` here?
Its IC50 is 3.12 µM.

Which IC50 does the source give for `O=C(CN1C(=O)C2(OCCO2)c2cc(Cl)ccc21)NO` here?
The IC50 was 9.58 µM.

Which IC50 does the source give for `O=C(CN1C(=O)C2(OCCCO2)c2cc(F)ccc21)NO` here?
Its IC50 is 97.5 µM.

Which IC50 does the source give for `O=C(CN1C(=O)C2(OCCCCO2)c2cc(F)ccc21)NO` here?
The IC50 was 15.2 µM.

For `O=C(CN1C(=O)C2(OCCO2)c2cc(F)ccc21)NO`, which IC50 is on record?
Its IC50 is 16.2 µM.

With `O=C(CN1C(=O)C2(OCCCO2)c2cc(Cl)ccc21)NO` as the compound, how does the IC50 read?
The IC50 was 10.9 µM.

Molecular target: T1, Aminopeptidase N (Sus scrofa, UniProt P15145)
T1 sequence (P15145 whole entry): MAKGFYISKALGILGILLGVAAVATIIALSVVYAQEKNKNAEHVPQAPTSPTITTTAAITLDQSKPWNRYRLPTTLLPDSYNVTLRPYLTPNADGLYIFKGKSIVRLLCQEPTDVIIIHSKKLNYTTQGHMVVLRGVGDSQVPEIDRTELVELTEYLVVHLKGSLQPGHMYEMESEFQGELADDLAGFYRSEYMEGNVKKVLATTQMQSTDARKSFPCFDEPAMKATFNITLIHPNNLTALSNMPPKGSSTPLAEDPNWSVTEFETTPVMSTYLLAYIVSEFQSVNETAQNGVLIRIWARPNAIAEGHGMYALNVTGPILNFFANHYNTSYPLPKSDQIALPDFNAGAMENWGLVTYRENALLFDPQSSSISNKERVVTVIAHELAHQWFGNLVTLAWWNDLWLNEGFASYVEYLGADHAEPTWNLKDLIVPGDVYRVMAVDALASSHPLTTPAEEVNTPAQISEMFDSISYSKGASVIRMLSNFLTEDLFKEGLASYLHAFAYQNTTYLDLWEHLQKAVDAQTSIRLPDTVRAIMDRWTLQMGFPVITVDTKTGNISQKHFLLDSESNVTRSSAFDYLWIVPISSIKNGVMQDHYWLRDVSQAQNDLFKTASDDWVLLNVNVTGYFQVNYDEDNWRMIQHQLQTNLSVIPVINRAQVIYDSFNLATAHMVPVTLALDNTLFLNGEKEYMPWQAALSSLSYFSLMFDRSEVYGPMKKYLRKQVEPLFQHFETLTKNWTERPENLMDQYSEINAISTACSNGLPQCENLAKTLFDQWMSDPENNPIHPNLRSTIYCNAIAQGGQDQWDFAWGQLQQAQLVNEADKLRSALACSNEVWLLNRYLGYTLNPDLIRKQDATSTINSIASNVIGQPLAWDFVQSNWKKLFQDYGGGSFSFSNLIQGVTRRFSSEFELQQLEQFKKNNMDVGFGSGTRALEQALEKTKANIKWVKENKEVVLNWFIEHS
Experiment: Inhibition of pig kidney microsome aminopeptidase-N using L-leu-p-nitroanilide as substrate incubated for 5 mins prior to substrate addition measured after 30 mins by spectrophotometric analysis
Details: not given

For `O=C(CN1C(=O)C2(OCCO2)c2cc(Br)ccc21)N[C@@H](Cc1ccccc1)C(=O)NO`, which IC50 is on record?
The IC50 was 26.4 µM.

For `O=C(CN1C(=O)C2(OCCCO2)c2cc(Br)ccc21)NO`, which IC50 is on record?
The IC50 was 3.4 µM.

Which IC50 does the source give for `O=C(CNC(=O)CN1C(=O)C2(OCCO2)c2cc(Br)ccc21)NO` here?
The IC50 was 6.6 µM.

For `CC(C)[C@H](NC(=O)CN1C(=O)C2(OCCO2)c2cc(Br)ccc21)C(=O)NO`, which IC50 is on record?
Its IC50 is 226 µM.

For `O=C(CN1C(=O)C2(OCCO2)c2ccccc21)NO`, which IC50 is on record?
Its IC50 is 209 µM.

For `O=C(CN1C(=O)C2(OCCCCO2)c2cc(Br)ccc21)NO`, which IC50 is on record?
The IC50 was 0.086 µM.

For `O=C(CN1C(=O)C2(OCCCCO2)c2cc(Cl)ccc21)NO`, which IC50 is on record?
Its IC50 is 0.074 µM.

For `O=C(CN1C(=O)C2(OCCO2)c2cc(Cl)ccc21)NO`, which IC50 is on record?
The IC50 was 0.31 µM.

Which IC50 does the source give for `O=C(CN1C(=O)C2(OCCCO2)c2ccccc21)NO` here?
Its IC50 is 266 µM.

Which IC50 does the source give for `O=C(CN1C(=O)C2(OCCCO2)c2cc(F)ccc21)NO` here?
The IC50 was 6.71 µM.

With `O=C(CN1C(=O)C2(OCCCCO2)c2cc(F)ccc21)NO` as the compound, how does the IC50 read?
The IC50 was 4.06 µM.

For `Cc1ccc2c(c1)C1(OCCO1)C(=O)N2CC(=O)NO`, which IC50 is on record?
Its IC50 is 2.63 µM.

For `Cc1ccc2c(c1)C1(OCCCO1)C(=O)N2CC(=O)NO`, which IC50 is on record?
The IC50 was 3.33 µM.

With `CC[C@H](C)[C@H](NC(=O)CN1C(=O)C2(OCCO2)c2cc(Br)ccc21)C(=O)NO` as the compound, how does the IC50 read?
The IC50 was 631 µM.

For `O=C(CN1C(=O)C2(OCCO2)c2cc(F)ccc21)NO`, which IC50 is on record?
The IC50 was 5.3 µM.

For `O=C(CN1C(=O)C2(OCCCO2)c2cc(Cl)ccc21)NO`, which IC50 is on record?
Its IC50 is 1.3 µM.

With `O=C(CN1C(=O)C2(OCCO2)c2cc(Br)ccc21)NC(C(=O)NO)c1ccccc1` (stereo not drawn) as the compound, how does the IC50 read?
The IC50 was > 1000 µM.

With `CC(C)C[C@H](NC(=O)CN1C(=O)C2(OCCO2)c2cc(Br)ccc21)C(=O)NO` as the compound, how does the IC50 read?
Its IC50 is 22.5 µM.

System: MDA-MB-231
Experiment: cells
Details: Homo sapiens, MDA-MB-231, 48 h
Description: Cytotoxicity against human MDA-MB-231 cells after 48 hrs by MTT assay

With `O=C(CN1C(=O)C2(OCCCO2)c2cc(Br)ccc21)NO` as the compound, how does the IC50 read?
Its IC50 is 55.1 µM.

Which IC50 does the source give for `O=C(CN1C(=O)C2(OCCCCO2)c2cc(Br)ccc21)NO` here?
Its IC50 is 32.9 µM.

For `O=C(CN1C(=O)C2(OCCCCO2)c2cc(Cl)ccc21)NO`, which IC50 is on record?
Its IC50 is 91.5 µM.

With `O=C(CN1C(=O)C2(OCCO2)c2cc(Cl)ccc21)NO` as the compound, how does the IC50 read?
The IC50 was 177 µM.

Which IC50 does the source give for `O=C(CN1C(=O)C2(OCCCO2)c2cc(F)ccc21)NO` here?
The IC50 was 576 µM.

Which IC50 does the source give for `O=C(CN1C(=O)C2(OCCCCO2)c2cc(F)ccc21)NO` here?
The IC50 was 114 µM.

With `O=C(CN1C(=O)C2(OCCO2)c2cc(F)ccc21)NO` as the compound, how does the IC50 read?
The IC50 was 180 µM.

Which IC50 does the source give for `O=C(CN1C(=O)C2(OCCCO2)c2cc(Cl)ccc21)NO` here?
Its IC50 is 259 µM.
